Activity calls are given as the source filed them. The calls are words filed in the database; no cut-off is given here.
Legend:
[1] = Solubility of compound in PBS/10% DMSO at 2.5 to 25 umol/L by UV-Vis spectroscopic method; assay type: physicochemical; settings: buffer
Escherichia coli [2] = experiment: Effect on viability of recombinant bioluminescence Escherichia coli harboring pHK724/pHK555 using PVP encapsulated compound at 20 uM after 30 mins in absence of light by luminometry; assay type: organism-based; settings: in vivo, 0.5 h
Staphylococcus aureus [3] = experiment: Antibacterial activity against Staphylococcus aureus ATCC 29213 using PVP encapsulated compound at 20 uM preincubated in dark for 30 mins followed by red light irradiation at 270 J/cm2 for 30 mins by […] relative to control; assay type: functional, organism-based
[4] = Solubility of compound in DMSO at 2.5 to 25 umol/L by UV-Vis spectroscopic method; assay type: physicochemical
Staphylococcus aureus [5] = experiment: Effect on viability of Staphylococcus aureus ATCC 29213 at 20 uM after 30 mins in absence of light by […]; assay type: organism-based; settings: in vivo, 0.5 h
Escherichia coli [6] = experiment: Effect on viability of recombinant bioluminescence Escherichia coli harboring pHK724/pHK555 at 20 uM after 30 mins in absence of light by luminometry; assay type: organism-based; settings: in vivo, 0.5 h
[7] = Induction of singlet oxygen generation in PBS/DMSO assessed as DPBF decay at 0.5 mmol/L measured after 7 mins of LED irradiation at 9 mW/cm2; assay type: functional
Escherichia coli [8] = experiment: Antibacterial activity against recombinant bioluminescence Escherichia coli harboring pHK724/pHK555 at 20 uM preincubated in dark for 30 mins followed by red light irradiation at 1620 J/cm2 for 180 mins by luminometry; assay type: functional, organism-based
[9] = Induction of singlet oxygen generation in DMF assessed as DPBF decay at 0.5 mmol/L measured after 7 mins of LED irradiation at 9 mW/cm2; assay type: functional
[10] = Photostability in PBS at 2 ml measured after 30 mins of red light irradiation at 150 mW/cm2 by UV-Vis spectroscopic method; assay type: physicochemical; settings: buffer, 0.5 h
[11] = Induction of singlet oxygen generation in PBS assessed as DPBF decay using PVP encapsulated compound at 0.5 mmol/L measured after 7 mins of LED irradiation at 9 mW/cm2; assay type: functional
Staphylococcus aureus [12] = experiment: Effect on viability of Staphylococcus aureus ATCC 29213 using PVP encapsulated compound at 20 uM after 30 mins in absence of light by […]; assay type: organism-based; settings: in vivo, 0.5 h
Escherichia coli [13] = experiment: Antibacterial activity against recombinant bioluminescence Escherichia coli harboring pHK724/pHK555 at 20 uM using PVP encapsulated compound preincubated in dark for 30 mins followed by red light irradiation at 1620 J/cm2 for 180 mins by luminometry; assay type: functional, organism-based
[14] = Solubility of PVP encapsulated compound in PBS at 2.5 to 25 umol/L by UV-Vis spectroscopic method; assay type: physicochemical; settings: buffer
Staphylococcus aureus [15] = experiment: Antibacterial activity against Staphylococcus aureus ATCC 29213 at 20 uM preincubated in dark for 30 mins followed by red light irradiation at 270 J/cm2 for 30 mins by […] relative to control; assay type: functional

Question: With `CC(C)NS(=O)(=O)c1ccc(Oc2cc3c(cc2Oc2ccc(S(=O)(=O)NC(C)C)cc2)-c2nc-3nc3[nH]c(nc4nc(nc5[nH]c(n2)c2cc(Oc6ccc(S(=O)(=O)NC(C)C)cc6)c(Oc6ccc(S(=O)(=O)NC(C)C)cc6)cc52)-c2cc(Oc5ccc(S(=O)(=O)NC(C)C)cc5)c(Oc5ccc(S(=O)(=O)NC(C)C)cc5)cc2-4)c2cc(Oc4ccc(S(=O)(=O)NC(C)C)cc4)c(Oc4ccc(S(=O)(=O)NC(C)C)cc4)cc32)cc1` as the compound, how does the solubility [1] read?
Answer: Its solubility is “Insoluble”.

Question: What about the Activity (Escherichia coli [2]) of the same compound?
Answer: The Activity was “Non-Toxic”.

Question: What about the Activity (Staphylococcus aureus [3]) of the same compound?
Answer: Its Activity is “Active”.

Question: And the solubility [4]?
Answer: The solubility was “Soluble”.

Question: And the Activity (Staphylococcus aureus [5])?
Answer: Its Activity is “Non-Toxic”.

Question: What about the Activity (Escherichia coli [6]) of the same compound?
Answer: The Activity was “Non-Toxic”.

Question: And the Activity [7]?
Answer: Its Activity is 4%.

Question: What about the Activity (Escherichia coli [8]) of the same compound?
Answer: The Activity was “Active”.

Question: What about the Activity [9] of the same compound?
Answer: Its Activity is 96%.

Question: And the Stability [10]?
Answer: The Stability was “Stable”.

Question: And the Activity [11]?
Answer: Its Activity is 74%.

Question: What about the Activity (Staphylococcus aureus [12]) of the same compound?
Answer: Its Activity is “Non-Toxic”.

Question: What about the Activity (Escherichia coli [13]) of the same compound?
Answer: Its Activity is “inactive”.

Question: And the solubility [14]?
Answer: Its solubility is “Soluble”.

Question: Which Activity (Staphylococcus aureus [15]) does the source give for `CCN(CC)S(=O)(=O)c1ccc(Oc2cc3c(cc2Oc2ccc(S(=O)(=O)N(CC)CC)cc2)-c2nc-3nc3[nH]c(nc4nc(nc5[nH]c(n2)c2cc(Oc6ccc(S(=O)(=O)N(CC)CC)cc6)c(Oc6ccc(S(=O)(=O)N(CC)CC)cc6)cc52)-c2cc(Oc5ccc(S(=O)(=O)N(CC)CC)cc5)c(Oc5ccc(S(=O)(=O)N(CC)CC)cc5)cc2-4)c2cc(Oc4ccc(S(=O)(=O)N(CC)CC)cc4)c(Oc4ccc(S(=O)(=O)N(CC)CC)cc4)cc32)cc1` here?
Answer: Its Activity is >3 deltalog10CFU/ml.

Question: What about the solubility [1] of the same compound?
Answer: Its solubility is “Insoluble”.

Question: What about the Activity (Escherichia coli [2]) of the same compound?
Answer: The Activity was “Non-Toxic”.

Question: And the Activity (Staphylococcus aureus [3])?
Answer: The Activity was “Active”.

Question: And the solubility [4]?
Answer: Its solubility is “Soluble”.

Question: What about the Activity (Staphylococcus aureus [5]) of the same compound?
Answer: The Activity was “Non-Toxic”.

Question: And the Activity (Escherichia coli [6])?
Answer: The Activity was “Non-Toxic”.

Question: What about the Activity [7] of the same compound?
Answer: Its Activity is 1%.

Question: And the Activity (Escherichia coli [8])?
Answer: The Activity was “inactive”.

Question: What about the Activity [9] of the same compound?
Answer: The Activity was 93%.

Question: And the Stability [10]?
Answer: Its Stability is “Stable”.

Question: And the Activity [11]?
Answer: The Activity was 68%.

Question: And the Activity (Staphylococcus aureus [12])?
Answer: Its Activity is “Non-Toxic”.

Question: And the Activity (Escherichia coli [13])?
Answer: The Activity was “inactive”.

Question: And the solubility [14]?
Answer: The solubility was “Soluble”.

Question: Which Activity (Staphylococcus aureus [15]) does the source give for `COc1ccc(NS(=O)(=O)c2ccc(Oc3cc4c(cc3Oc3ccc(S(=O)(=O)Nc5ccc(OC)cc5)cc3)-c3nc-4nc4[nH]c(nc5nc(nc6[nH]c(n3)c3cc(Oc7ccc(S(=O)(=O)Nc8ccc(OC)cc8)cc7)c(Oc7ccc(S(=O)(=O)Nc8ccc(OC)cc8)cc7)cc63)-c3cc(Oc6ccc(S(=O)(=O)Nc7ccc(OC)cc7)cc6)c(Oc6ccc(S(=O)(=O)Nc7ccc(OC)cc7)cc6)cc3-5)c3cc(Oc5ccc(S(=O)(=O)Nc6ccc(OC)cc6)cc5)c(Oc5ccc(S(=O)(=O)Nc6ccc(OC)cc6)cc5)cc43)cc2)cc1` here?
Answer: Its Activity is >3 deltalog10CFU/ml.

Question: And the solubility [1]?
Answer: Its solubility is “Insoluble”.

Question: What about the Activity (Escherichia coli [2]) of the same compound?
Answer: Its Activity is “Non-Toxic”.

Question: And the Activity (Staphylococcus aureus [3])?
Answer: The Activity was “Active”.

Question: And the solubility [4]?
Answer: Its solubility is “Soluble”.

Question: What about the Activity (Staphylococcus aureus [5]) of the same compound?
Answer: Its Activity is “Non-Toxic”.

Question: What about the Activity (Escherichia coli [6]) of the same compound?
Answer: The Activity was “Non-Toxic”.

Question: And the Activity [7]?
Answer: Its Activity is 4%.

Question: What about the Activity (Escherichia coli [8]) of the same compound?
Answer: The Activity was “Active”.

Question: And the Activity [9]?
Answer: The Activity was 92%.

Question: What about the Stability [10] of the same compound?
Answer: Its Stability is “Stable”.

Question: And the Activity [11]?
Answer: The Activity was 59%.

Question: What about the Activity (Staphylococcus aureus [12]) of the same compound?
Answer: Its Activity is “Non-Toxic”.

Question: What about the Activity (Escherichia coli [13]) of the same compound?
Answer: The Activity was “inactive”.

Question: What about the solubility [14] of the same compound?
Answer: Its solubility is “Soluble”.
